According to patent publication US10226413B2, “Solution solubilization composition of insoluble material and method for solubilizing insoluble material using same” (Damy Chemical Co., Ltd., priority 2013, dated 2019):

Protocol: The turbidity of each lotion was measured using a spectrophotometer at 620 nm. A high turbidity of a liquid indicates cloudiness of the liquid and a low turbidity of a liquid indicates high transparency of the liquid. The turbidity (optical density) of the lotion was measured in the range of 0.01-1.0.
The amount of light passing through each solution was measured. The transmittance (T, %) of the solution for light was calculated as follows. First, the measured absorbance was substituted into -log t=A (absorbance, O.D). Since t is always not greater than 1, the transmittance (T) was calculated and expressed in percentage by T (%)=t×100. The transmittance is between 1 and 100%. The higher the transmittance, the higher the transparency. The transmittance of purified water was defined as 100%.

SMILES | solubilization in water by the composition (turbidity and transmittance)
COC1=C(OC)C(=O)C(C/C=C(\C)CC/C=C(\C)CC/C=C(\C)CC/C=C(\C)CC/C=C(\C)CC/C=C(\C)CC/C=C(\C)CC/C=C(\C)CC/C=C(\C)CCC=C(C)C)=C(C)C1=O [ubiquinone] | can solubilize
C[C@@H]1O[C@@H](OC[C@H]2O[C@@H](Oc3c(-c4ccc(O)c(O)c4)oc4cc(O)cc(O)c4c3=O)[C@H](O)[C@@H](O)[C@@H]2O)[C@H](O)[C@H](O)[C@H]1O [rutin] | can solubilize
